Test results reported in patent US20250289848A1, “PEPTIDOMIMETIC INHIBITORS OF B-CATENIN/TCF PROTEIN-PROTEIN INTERACTION” (H. LEE MOFFITT CANCER CENTER AND RESEARCH INSTITUTE, INC., priority 2018, published 2025).
Entries after “also recorded” stand apart in the source; their conditions may differ.

Key:
β-catenin/E-cadherin PPI = test: Co-IP experiment, HCT116 cells, β-catenin/E-cadherin; details: 24 h, concentrations sufficient to disrupt β-catenin/Tcf PPI
[1] = system: Wnt/β-catenin hyperactive cancer cells; test: MTS cell viability assay, summary over cell lines; type: cell-based; details: result in words
[2] = system: TOPFlash luciferase reporter in β-catenin activated HEK293 cells; test: TOPFlash luciferase reporter assay; type: cell-based; details: 24 h treatment, wild-type Tcf4 binding sites
Description: (§1) FuGENE 6 (E2962, Promega) in a 96-well plate format was used for the transfection of HEK293 cells according to the manufacturer's instructions. HEK293 cells were co-transfected with 45 ng of the TOPFlash or FOPFlash reporter gene, 135 ng of pcDNA3.1-p-catenin and 20 ng of pCMV-RL normalization reporter gene. Cells were cultured in DMEM and 10% fatal bovine serum at 37° C. for 24 h, and different concentrations of inhibitors were then added. After 24 h, the luciferase reporter activity was measured using the Dual-Glo system (E2940, Promega). Normalized luciferase activity in response to the treatment with the inhibitors was compared with that obtained from the cells treated with DMSO. Experiments were performed in triplicate.

[3] = system: FOPFlash luciferase reporter in β-catenin activated HEK293 cells; test: FOPFlash luciferase reporter assay; type: cell-based; details: 24 h treatment, mutant Tcf4 binding sites
Description: as §1

MDA-MB-231 cells [4] = test: Scratch wound healing assay; type: cell-based, human; details: 10 μM; 10% serum; mitomycin; 14 h
Description: Scratch wound healing assay. To the confluent monolayer of MDA-MB-231 cells in 24-well plates, wounds will be made by scraping a sterile 200 μL pipette tip. Cells were maintained in DMEM containing 10% FBS with 10 μg/mL mitomycin to inhibit cell proliferation. Images of wounds were taken immediately and 14 h after wounding.
(§2) Scratch wound healing and Matrigel invasion assays using TNBC MDA-MB-231 cells were conducted.

MDA-MB-231 cells [5] = test: Matrigel invasion assay; type: cell-based, human; details: 10 μM; 24 h
Description: Matrigel invasion assay. MDA-MB-231 cells (5×10^4) suspended in 200 p L starvation medium were added to the upper chamber of a Matrigel coated insert (6.5 mm diameter, […]; Corning 353097), and the insert was placed in a 24-well plate containing […] DMEM medium with 10% FBS. Inhibitors were added to both upper and the lower chambers. Invasion assays were performed for 24 h and cells were fixed with 3.7% formaldehyde. Cells were stained with crystal violet staining solution. The cells on the upper side of the insert were removed with a cotton swab. Five randomly selected fields (×10 objectives) on the lower side of the insert were photographed, and the invaded cells were counted.
as §2

HCT116 cells = test: MTS cell viability assay, HCT116; type: cell-based; details: Homo sapiens, HCT-116, 72 h; read-out: MTs IC50 ± SD HCT116
MDA-MB-468 cells = test: MTS cell viability assay, MDA-MB-468; type: cell-based; details: Homo sapiens, MDA-MB-468, 72 h, read-out: MTs IC50 ± SD MDA-MB-468
BT-20 cells = test: MTS cell viability assay, BT-20; type: cell-based; details: Homo sapiens, BT-20, 72 h; read-out: MTs IC50 ± SD BT-20
β-catenin/Tcf PPI = type: cell-based; details: HCT116 cells, 24 h treatment
β-catenin/APC PPI = test: Co-IP experiment, HCT116 cells, β-catenin/APC; details: 24 h, concentrations sufficient to disrupt β-catenin/Tcf PPI
A549 cells = test: MTS cell viability assay, A549; type: cell-based; details: Homo sapiens, A549, 72 h; read-out: MTs IC50 ± SD A549
MDA-MB-231 cells [6] = test: MTS cell viability assay, MDA-MB-231; type: cell-based; details: Homo sapiens, MDA-MB-231, 72 h; read-out: MTs IC50 ± SD MDA-MB-231
SW480 cells = test: MTS cell viability assay, SW480; type: cell-based; details: Homo sapiens, SW480, 72 h; read-out: MTs IC50 ± SD SW480

| Structure (SMILES) | effect on the β-catenin/E-cadherin PPI (co-IP) (β-catenin/E-cadherin PPI) | viability of Wnt/β-catenin hyperactive cancer cells [1] | TOPFlash luciferase activity (transactivation of Wnt/β-catenin signaling) [2] | FOPFlash luciferase reporter activity [3] | migration of TNBC MDA-MB-231 cells (wound healing) (MDA-MB-231 cells [4]) | invasion of TNBC MDA-MB-231 cells (Matrigel) (MDA-MB-231 cells [5]) | IC50 (HCT116 cells) | IC50 (MDA-MB-468 cells) | IC50 (BT-20 cells) | disruption of the β-catenin/Tcf PPI (co-IP) (β-catenin/Tcf PPI) | effect on the β-catenin/APC PPI (co-IP) (β-catenin/APC PPI) | IC50 (A549 cells) | IC50 (MDA-MB-231 cells [6]) | IC50 (SW480 cells) |
| --- | --- | --- | --- | --- | --- | --- | --- | --- | --- | --- | --- | --- | --- | --- |
| CCOC(=O)CC[C@H](NC(=O)[C@H](Cc1nn[nH]n1)NC(=O)[C@H](Cc1ccc2ccccc2c1)NC(=O)c1cc2cc(Cl)ccc2[nH]1)C(=O)Nc1ccc(OC(F)(F)F)cc1 [Compound 56, Ethyl (S)-4-((S)-2-((S)-2-(5-chloro-1H-indole-2-carboxamido)-3-(naphthalen-2-yl)propanamido)-3-(2H-tetrazol-5-yl)propanamido)-5-oxo-5-((4-(trifluoromethoxy)phenyl)amino)pentanoate] | without affecting; also recorded: had no effect | selectively inhibited | suppressed transactivation of Wnt/β-catenin signaling in dose-dependent manners; also recorded: inhibited | did not inhibit | selectively inhibited; also recorded: inhibited the migration; also recorded: effectively inhibit | selectively inhibited; also recorded: inhibited invasion; also recorded: effectively inhibit | 69.4 ± 7.21 µM | 7.25 ± 0.72 µM | 16.5 ± 2.23 µM | disrupted the β-catenin/Tcf PPI; also recorded: dose-dependently inhibited | without affecting; also recorded: had no effect | 86.4 ± 8.58 µM | 12.3 ± 2.16 µM | 14.1 ± 2.86 µM |
| NC(=O)CC[C@H](NC(=O)[C@H](Cc1nn[nH]n1)NC(=O)[C@H](Cc1ccc2ccccc2c1)NC(=O)c1cc2cc(Cl)ccc2[nH]1)C(=O)Nc1ccc(OC(F)(F)F)cc1 [Compound 55, (S)-2-((S)-2-((S)-2-(5-Chloro-1H-indole-2-carboxamido)-3-(naphthalen-2-yl)propanamido)-3-(2H-tetrazol-5-yl)propanamido)-N^1-(4-(trifluoromethoxy)phenyl)pentanediamide] | – | – | inhibited | did not inhibit | – | – | 63.9 ± 7.48 µM | 29.2 ± 4.02 µM | 38.4 ± 3.99 µM | – | – | 60.3 ± 10.5 µM | 34.3 ± 6.42 µM | 28.2 ± 4.63 µM |
